Laboratory results from article PMC12040169 (PLOS Biology, 2025).

Experiment: in vitro
Details: human, hela cells, % viability

Going from `CCOCC1CCN(C(=O)c2ncsc2Nc2cccnc2)C1` (stereo not drawn) [CBK304514] to `Cc1ccsc1C(=O)N1CCC(c2n[nH]c3ncccc23)CC1` [CBK284910], the viability at 28.5 h, 10 µM falls from 110% to 92.2%.

Compared with `O=C(O)CC1S/C(=N/N=C/c2ccc(-c3cccc([N+](=O)[O-])c3)o2)NC1=O` (stereo not drawn) [CBK264517], `CN(C)S(=O)(=O)N(CC(=O)Nc1cccc([N+](=O)[O-])c1)c1ccccc1` [CBK265904] is lower in viability at 28.5 h, 10 µM: 113% for the first, 90.2% for the second.

Going from `O=C(NCc1ccccc1)c1ccc2[nH]c(=O)c(-c3ccccc3)c(O)c2c1` [CBK160318] to `O=C(NCc1ccco1)c1cccc(Oc2ccccc2)c1` [CBK270333], the viability at 28.5 h, 10 µM rises from 84% to 89.3%.

Going from `NC(=O)CCCN1CC[C@H]2c3c(cccc3C(N)=O)CC[C@H]21` [CBK007883] to `COc1ccc2c(c1)CCN=C2C[C@H]1CN(C(=O)C2CC2)CC[C@H]1CC(=O)O` [CBK289154], the viability at 28.5 h, 10 µM rises from 93.3% to 108%.

Going from `Cc1cc(N(C)CCc2ccccc2)nc2cc(Cl)ccc12` [CBK262221] to `O=C(O)c1ccccc1SC1CC(=O)N(CCc2ccccc2)C1=O` (stereo not drawn) [CBK269321], the viability at 28.5 h, 10 µM falls from 93.9% to 93.6%.

First: CC(=O)N1CCC[C@H]2NC(=O)CNC(=O)C3(C/C=C/C[C@H]21)CCN(C(=O)CCC(=O)O)CC3 [CBK292174]
Second: CN1CCCc2cc(CN3CCC4(CCCNC4=O)CC3)ccc21 [CBK284876]
The viability at 28.5 h, 10 µM of the first is lower: 85% for the first, 101% for the second.

Compared with `Cn1c(CNc2ccccc2[N+](=O)[O-])c(C#N)c2ccccc21` [CBK115324], `O=c1[nH]c2ccccc2cc1CNc1ccc(F)cc1F` [CBK281933] is lower in viability at 28.5 h, 10 µM: 98.1% for the first, 84.1% for the second.

Going from `O=C(C1=Cc2ccccc2OC1)N1CCC(c2ccncc2)CC1` [CBK282339] to `CN(C(=O)c1ccccn1)C1CCN(c2ncnc3ccccc23)CC1` [CBK305346], the viability at 28.5 h, 10 µM falls from 104% to 91.8%.

Compared with `CN(C)S(=O)(=O)N1CCC(Cc2ccccc2)CC1` [CBK263768], `Cn1cncc1CN1C[C@@H]2CCCN2C[C@@H]1Cc1ccccc1` [CBK283027] is lower in viability at 28.5 h, 10 µM: 98.2% for the first, 91.9% for the second.

Going from `COc1ccccc1CNC(=O)c1cnc2sc(C)cn2c1=O` [CBK287708] to `COC(C(=O)NCc1sc(-c2ccccc2)nc1C)c1ccccc1` (stereo not drawn) [CBK092362], the viability at 28.5 h, 10 µM falls from 104% to 93.1%.

First: O=C(CC1C(=O)Nc2ncnn21)Nc1ccccc1 (stereo not drawn) [CBK288071]
Second: Cc1cc2c(cc1C)NC(CC(=O)Nc1cccc(Br)c1)C(=O)N2 (stereo not drawn) [CBK269548]
The viability at 28.5 h, 10 µM of the first is higher: 90.7% for the first, 73.3% for the second.

Compared with `O=c1n(C(c2ccccc2)c2ccccc2)ccn1S(=O)(=O)c1cccc(Cl)c1` [CBK106615], `O=S(=O)(c1ccccc1)N1Cc2cccc3[nH]cc(c23)C1` [CBK153275] is higher in viability at 28.5 h, 10 µM: 91.5% for the first, 102% for the second.

Going from `CN(C)CCCNC(=O)c1ccc([N+](=O)[O-])o1` [CBK262118] to `CN(C)CCCNC(=O)C1CCN(c2cncc(-c3ccc(O)cc3)n2)CC1` [CBK126929T], the viability at 28.5 h, 10 µM rises from 92.8% to 94.1%.

Going from `N#Cc1c2c(c(-c3ccccc3)[nH]c1=O)CCCC2` [CBK287905] to `Cc1[nH]cnc1CN1CCc2c(c3ccccc3n2C)C1=O` [CBK002383C], the viability at 28.5 h, 10 µM falls from 91.6% to 63.5%.

Compared with `O=C1CN(Cc2ccc(Cl)cc2)CCO1` [CBK023036C], `CCN(CCN1CCOCC1)C(=O)c1[nH]c2c(F)cccc2c1C` [CBK306772] is higher in viability at 28.5 h, 10 µM: 88.7% for the first, 90.3% for the second.

Going from `CC(=O)Nc1nc2ccc(S(C)(=O)=O)cc2s1` [CBK287336] to `Cc1nn(CC(C)C)c(Cl)c1C(=O)Nc1nc2ccc(F)cc2s1` [CBK252188], the viability at 28.5 h, 10 µM falls from 110% to 90.4%.

Compared with `CC(C)(C)O/N=C/c1cccnc1` [CBK015761C], `CC(Sc1ccccc1)C(=O)NC(C)(C)C` (stereo not drawn) [CBK026610] is higher in viability at 28.5 h, 10 µM: 109% for the first, 116% for the second.

Going from `O=C(O)C1C2CCC(C2)C1C(=O)NCCCCc1ccccc1` (stereo not drawn) [CBK286967] to `Cc1ccc(NC(=O)C(=O)NCCCN2CCOCC2)cc1C` [CBK264836], the viability at 28.5 h, 10 µM rises from 91.1% to 106%.

Compared with `CC(C)Nc1cncc(OCCCc2ccncc2)n1` [CBK115881], `O=C(NCCCNC(=O)c1ccc(Cl)cc1Cl)c1ccncc1` [CBK269372] is lower in viability at 28.5 h, 10 µM: 90.6% for the first, 89.7% for the second.

Going from `CCC(C)(C)c1ccc(S(=O)(=O)N2CCCN(Cc3cn(C)c4ccccc34)CC2)cc1` [CBK062871] to `Cc1nccn1CC1(O)CCN(Cc2c[nH]c3ccccc23)CC1` [CBK282671], the viability at 28.5 h, 10 µM falls from 91.2% to 82.1%.

Going from `CCOc1ccc(Cc2nnc(S)n2C2CC2)cc1OCC` [CBK288388] to `Cc1ccc(-n2c(C)cc(C(=O)CSc3n[nH]c(=O)n3C3CC3)c2C)cc1C` [CBK296764], the viability at 28.5 h, 10 µM rises from 66.4% to 92.3%.

Going from `CN1CCN(c2nc(-c3cccc(F)c3)cnc2N)CC1` [CBK063433] to `Nc1ncc(-c2ccc(O)cc2)nc1N1CCC[C@@H]1CO` [CBK063669], the viability at 28.5 h, 10 µM falls from 100% to 91.7%.

First: CC(C)C(NC(=O)N1c2ccccc2NC(=O)C1C(C)C)C(=O)O (stereo not drawn) [CBK286670]
Second: CC(C)(C)C(=O)NCc1ccc(C(=O)CSc2n[nH]c(=O)n2C2CC2)s1 [CBK295653]
The viability at 28.5 h, 10 µM of the first is lower: 100% for the first, 111% for the second.

Compared with `CCOC(=O)CNS(=O)(=O)c1ccc(Cl)c(Cl)c1Cl` [CBK034428], `CC(C)(C)OC(=O)NNC(=S)Nc1ccc(S(N)(=O)=O)cc1` [CBK267107] is higher in viability at 28.5 h, 10 µM: 92% for the first, 100% for the second.

First: Oc1ccc(Nc2ncnc3scc(-c4ccccc4)c23)cc1 [CBK269146C]
Second: CS(=O)(=O)c1ccc(Nc2ncnc(N3CCC(Sc4ccccc4)CC3)c2[N+](=O)[O-])cc1 [CBK113567]
The viability at 28.5 h, 10 µM of the first is higher: 108% for the first, 92.8% for the second.

Compared with `O=C(Nc1ccccc1Oc1ccc(F)cc1)c1ccc(Cn2cncn2)cc1` [CBK285587], `Cn1nc(C(=O)Nc2ccccc2Oc2ccc(F)cc2)ccc1=O` [CBK281430] is lower in viability at 28.5 h, 10 µM: 118% for the first, 91% for the second.

First: Cc1c(C(=O)C2=C(O)C(=O)N(CCN3CCOCC3)C2c2ccccn2)cnn1-c1ccccc1 (stereo not drawn) [CBK266493]
Second: O=C(NCCN1CCOCC1)c1ccc(Nc2cncc(-c3ccc(O)cc3)n2)cc1 [CBK115692]
The viability at 28.5 h, 10 µM of the first is higher: 112% for the first, 77.1% for the second.

Going from `Cn1cc(CNCc2ccc(N3CCCC3)nc2)c(-c2cccnc2)n1` [CBK306312] to `Cn1cc(CN2CCCC(c3cc4ccccc4cn3)C2)cn1` (stereo not drawn) [CBK285042], the viability at 28.5 h, 10 µM falls from 105% to 101%.

Compared with `Cc1nc(-c2ccc(NCCc3nc(C4CC4)cs3)nc2)[nH]c(=O)c1C` [CBK304424], `Cc1nc(N)sc1-c1csc(Nc2ccc(Cl)cn2)n1` [CBK288532] is lower in viability at 28.5 h, 10 µM: 108% for the first, 61.4% for the second.

Going from `CCc1cc(C(=O)N2CCC(Oc3ccccc3F)CC2)n(C)n1` [CBK282172] to `CCC1CCCCN1C(=O)c1oc2ccccc2c1C` (stereo not drawn) [CBK078548], the viability at 28.5 h, 10 µM falls from 109% to 107%.

Going from `CC(=O)Nc1ccc(S(=O)(=O)Nc2ccc(C(=O)O)cc2)cc1` [CBK050427] to `Cc1c(C(=O)Nc2ccc(S(=O)(=O)NCC3CCCO3)cc2)cccc1[N+](=O)[O-]` (stereo not drawn) [CBK267533], the viability at 28.5 h, 10 µM rises from 91.3% to 94.5%.

Going from `Cc1noc(C)c1CC(=O)NCc1cccc(C#N)c1` [CBK305822] to `CCOCCCNC(=O)c1cnn2c(C)c(Cc3cccc(C#N)c3)c(C)nc12` [CBK162081], the viability at 28.5 h, 10 µM falls from 106% to 101%.

Compared with `COC(=O)[C@@H]1Cc2ncn(Cc3ccc(OC)cc3)c2CN1C(=O)c1ccc(C#N)cc1` [CBK288982], `COc1ccc(CC(=O)N2CCCC2c2cccc(Cc3cccc(F)c3)n2)cc1` (stereo not drawn) [CBK286220] is higher in viability at 28.5 h, 10 µM: 95.4% for the first, 108% for the second.

Going from `CCN(CC)C(=O)C1CCCN(C(=O)NCc2cc(OC)c(OC)c(OC)c2)C1` (stereo not drawn) [CBK156130] to `CCC(CC)C(=O)N(C)c1c(C)nc2ccc(C(=O)N(C)CCN(C)C)cn12` [CBK146491], the viability at 28.5 h, 10 µM rises from 86.8% to 94.8%.

Going from `Nn1cnn2c(SCC(=O)c3ccccc3)nnc12` [CBK263194] to `Cc1ccccc1NC(=O)/C(=C\c1cccnc1)NC(=O)c1ccccc1` [CBK261632], the viability at 28.5 h, 10 µM falls from 99.8% to 93.9%.

Going from `CCN(CC)CCN1CCN(c2cc(-c3ccsc3)ncn2)CC1` [CBK036973] to `Cc1cccc(OCC(=O)N2CCN(Cc3ccccn3)CC2)c1` [CBK134023G], the viability at 28.5 h, 10 µM falls from 93.7% to 92.3%.

Compared with `CCc1c(C(=O)Nc2ccc(C(F)(F)F)cc2)cnc2ncnn12` [CBK291244], `O=C(Nc1ccc2[nH]ccc2c1)c1ccc(Br)cc1Cl` [CBK159679] is higher in viability at 28.5 h, 10 µM: 90.4% for the first, 106% for the second.

First: CN1CCCC(NC(=O)Cn2nc(C(F)(F)F)c3c2CCCC3)C1 (stereo not drawn) [CBK282548]
Second: Cc1nc(C2CCCC2)cc([C@H]2CN3CC[C@H]2C[C@@H]3CNS(C)(=O)=O)n1 [CBK289121]
The viability at 28.5 h, 10 µM of the first is higher: 101% for the first, 87.6% for the second.

Compared with `COc1ccc(C(C)C)cc1-c1cnc2nc(N)ccc2c1` [CBK081216], `COc1ccc(C(C)C)cc1-c1cnc2[nH]c(=O)n(-c3ccc4[nH]ccc4c3)c2n1` [CBK064714] is lower in viability at 28.5 h, 10 µM: 97.7% for the first, 90.7% for the second.

Going from `Cc1ccc(C(=O)c2cccc(N3C(=O)c4ccc(C(=O)O)cc4C3=O)c2)cc1C` [CBK286994] to `COCCn1nnnc1C(c1cc2c(C)ccc(C)c2[nH]c1=O)N1CCN(C(=O)c2ccco2)CC1` (stereo not drawn) [CBK111563], the viability at 28.5 h, 10 µM falls from 110% to 98.6%.

First: CCOC(=O)Cc1cc(O)nc(NC(=N)Nc2ccc(C)cc2C)n1 [CBK264986]
Second: CC(NCC(O)c1ccco1)c1ccc(C#N)s1 (stereo not drawn) [CBK304265]
The viability at 28.5 h, 10 µM of the first is higher: 104% for the first, 85.9% for the second.

Compared with `N#Cc1c(Oc2cccc3cccnc23)cccc1C(F)(F)F` [CBK002728], `Nc1c(-c2ccsc2)cnc2cccnc12` [CBK081208] is lower in viability at 28.5 h, 10 µM: 105% for the first, 87.8% for the second.

Going from `CC(C)c1csc(C2CCN(C(=O)CCc3ccsc3)CC2)n1` [CBK305327] to `OC1CCC(Nc2nc(-c3ccccc3)cn3ccnc23)CC1` (stereo not drawn) [CBK037329], the viability at 28.5 h, 10 µM falls from 104% to 98.5%.

First: Cc1cc(COc2cc(N3CCCNCC3)ncn2)no1 [CBK085462]
Second: CCN1CCCC1CN(Cc1cccs1)CC1CCOC1 (stereo not drawn) [CBK282602]
The viability at 28.5 h, 10 µM of the first is lower: 95.4% for the first, 97.1% for the second.

First: O=C(O)C1C(C(=O)O)C1C(=O)O (stereo not drawn) [CBK230432]
Second: Oc1c(Cl)cc(Cl)cc1/C=N/c1ccc(-c2nc3ccc(/N=C/c4cc(Cl)cc(Cl)c4O)cc3[nH]2)cc1 [CBK261660]
The viability at 28.5 h, 10 µM of the first is higher: 94.9% for the first, 93.4% for the second.
